Experimental data taken from patent US20230217926A1, “SELECTIVE HERBICIDES BASED ON SUBSTITUTED ISOXAZOLIN CARBOXAMIDES AND ISOXADIFEN-ETHYL” (BAYER AKTIENGESELLSCHAFT, priority 2020, published 2023).
Where “and” joins values, the source holds several entries; their conditions need not be identical. Identical values can stand only once.

Experiments:
ZEAMA Sileno [1] = assay: Tank-mix post-emergence crop damage, greenhouse, visual assessment; type: in vivo, maize; design: key to Reduction [Difference]: % points: herbicide damage without safener − damage with safener; conditions: for HER effect + SAF / Reduction [%] / Reduction [Difference]: Final; for HER effect: no safener, Final assessment
Experimental: Seeds of crops (spring wheat, TRZAS; spring barley, HORVS; maize, ZEAMA) were placed in sandy loam soil in peat pots, covered with soil and cultivated in a greenhouse under good growth conditions. Two to three weeks after sowing, the test plants were treated at the 1 to 3-leaf stage. The herbicide/safener active compound combinations according to the invention, formulated as wettable powders or emulsion concentrates, and, in parallel tests, the correspondingly formulated individual active compounds were sprayed onto the green parts of the plants in various dosages using an amount of water of 300 l/ha (converted).
The pots were returned under good growing conditions in a glasshouse and a visual assessment of herbicidal effects was made at intervals from 1 to 3 weeks after herbicide application (DAT=days after treatment). Assessment was on a percentage basis in comparison with untreated control plants (0%=no injury, 100%=complete kill).
Reduction[Difference]=herbicide damage without safener−herbicide damage with safener Reduction[%]=(Reduction[Difference]*100)/herbicide damage without safener
a) Plant Species, Variety: ZEAMA Sileno, Safener (SAF): Isoxadifen-Ethyl

ZEAMA Sileno [2] = assay: Safener seed treatment, pre-emergence herbicide, crop damage; type: in vivo, maize; design: key to Reduction [Difference]: % crop damage without safener minus % damage with safener; conditions: for Reduction [%] / Reduction [Difference]: isoxadifen-ethyl 0.25 g a.i./kg seed; for HER effect + SAF: isoxadifen-ethyl seed treatment 0.25 g a.i./kg seed; for HER effect: no safener
Experimental: For the safener seed treatment, sufficient seeds of the respective crops (spring wheat, TRZAS; spring barley, HORVS; maize, ZEAMA) were weighed into screw top glass bottles approximately twice the volume of the seeds.
The specified safeners, formulated as wettable powder (WP) were weighed out so that the specified rates (g a.i./kg seed) would be obtained, dissolved in water (1 ml water per 10 g of seeds), and added to the seeds to produce a slurry.
The bottles were capped and then placed in an overhead shaker (set at medium speed for ca. 60 minutes) so that the seeds were evenly coated with the slurry. The bottles were uncapped and the seeds were either placed on paper and dried for an interval of 3-4 hours prior to sowing, or directly sown. Seeds were placed in sandy loam soil in pots of a diameter of 7-8 cm, and covered with soil.
Pre-emergence application of the specified herbicides was done subsequently, on two sets of plants: a) seed treatment with safener, as described above
The herbicides were formulated as WP and was sprayed onto the soil surface as an aqueous suspension at an equivalent water application rate of 300 l/ha.
After application, the test plants were kept in the greenhouse under good growth conditions. At intervals up to 4 weeks after application (=28 days after treatment; DAT), % crop damage observed on the treated plants was scored visually in comparison to control plants that had not received any safener or herbicide treatment.
Values in the table below are mean values of at least 2 replicates.
Reduction[Difference]=herbicide damage without safener−herbicide damage with safener Reduction[%]=(Reduction[Difference]*100)/herbicide damage without safener […]
c) Plant Species, Variety: ZEAMA Sileno, Safener (SAF): Isoxadifen-Ethyl

[3] = HER 8 g a.i./ha + isoxadifen-ethyl 50 g a.i./ha
[4] = HER 8 g a.i./ha, isoxadifen-ethyl 50 g a.i./ha
[5] = HER 32 g a.i./ha + isoxadifen-ethyl 100 g a.i./ha
[6] = HER 32 g a.i./ha, isoxadifen-ethyl 100 g a.i./ha
[7] = HER 80 g a.i./ha pre-emergence, 14 DAT
[8] = HER 2 g a.i./ha + isoxadifen-ethyl 50 g a.i./ha
[9] = HER 2 g a.i./ha, isoxadifen-ethyl 50 g a.i./ha
[10] = HER 2 g a.i./ha, 0%=no injury, 100%=complete kill
[11] = HER 40 g a.i./ha pre-emergence, 14 DAT
[12] = HER 40 g a.i./ha pre-emergence, 26 DAT
[13] = HER 80 g a.i./ha pre-emergence, 26 DAT

| SMILES | HER effect + SAF (ZEAMA Sileno [1]; [3]) | Reduction [%] (ZEAMA Sileno [1]; [4]) | Reduction [Difference] (ZEAMA Sileno [1]; [4]) | HER effect (ZEAMA Sileno [1]; HER 8 g a.i./ha) | HER effect + SAF (ZEAMA Sileno [1]; [5]) | Reduction [%] (ZEAMA Sileno [1]; [6]) | Reduction [Difference] (ZEAMA Sileno [1]; [6]) | HER effect (ZEAMA Sileno [1]; HER 32 g a.i./ha) | further results |
| --- | --- | --- | --- | --- | --- | --- | --- | --- | --- |
| COC(=O)C1C=CC(NC(=O)C2(C)CC(c3cc(Cl)cc(C#N)c3)=NO2)C1 (mixture of isomers) [Example 1.23] | 30% | 40% | 20 | 50% | 30% | 57% | 40 | 70% |  |
| C=CC1(C(=O)NC2COC(C(=O)OCCOC)C2)CC(c2cc(F)cc(F)c2)=NO1 (mixture of isomers) [Example 1.66] | 43% | 55% | 53 | 96% | 47% | 52% | 50 | 97% |  |
| C=CCOC(=O)C1CC(NC(=O)C2(C)CC(c3cc(F)cc(F)c3)=NO2)CO1 (mixture of isomers) [Example 1.75] | 23% | 68% | 50 | 73% | 43% | 51% | 45 | 88% |  |
| C=CC1(C(=O)NC2COC(C(=O)OCCCl)C2)CC(c2cc(F)cc(F)c2)=NO1 (mixture of isomers) [Example 1.82] | 65% and 53% | 28% and 43% | 25 and 40 | 90% and 93% | 75% and 55% | 22% and 40% | 21 and 37 | 96% and 92% |  |
| C=CCOC(=O)C1CC(NC(=O)C2(C=C)CC(c3cc(F)cc(F)c3)=NO2)CO1 (mixture of isomers) [Example 1.83] | 28% | 55% | 34 | 62% | 20% | 76% | 65 | 85% |  |
| COCCOC(=O)C1C=CC(NC(=O)C2(C(F)(F)F)CC(c3cc(F)cc(C#N)c3)=NO2)C1 (centres unmarked) [Example 1.2] | 65% | 28% | 25 | 90% | 75% | 22% | 21 | 96% | Reduction [%] (ZEAMA Sileno [2]; [7]): 78%; Reduction [Difference] (ZEAMA Sileno [2]; [7]): 35; HER effect + SAF (ZEAMA Sileno [2]; [7]): 10%; HER effect (ZEAMA Sileno [2]; [7]): 45% |
| CCOC(=O)C1C=CC(NC(=O)C2(C(F)(F)F)CC(c3ccccc3)=NO2)C1 (centres unmarked) [Example 1.9] | 22% | 72% | 56 | 78% | 22% | 74% | 63 | 85% | Reduction [%] (ZEAMA Sileno [2]; [7]): 83%; Reduction [Difference] (ZEAMA Sileno [2]; [7]): 25; HER effect + SAF (ZEAMA Sileno [2]; [7]): 5%; HER effect (ZEAMA Sileno [2]; [7]): 30% |
| CCOC(=O)C1C=CC(NC(=O)C2(CF)CC(c3cc(F)cc(F)c3)=NO2)C1 (centres unmarked) [Example 1.17] | 20% | 79% | 75 | 95% |  |  |  |  | HER effect + SAF (ZEAMA Sileno [1]; [8]): 10%; Reduction [%] (ZEAMA Sileno [1]; [9]): 78%; Reduction [Difference] (ZEAMA Sileno [1]; [9]): 35; HER effect (ZEAMA Sileno [1]; [10]): 45% |
| COC(=O)C1C=CC(NC(=O)C2(C)CC(c3cc(F)cc(F)c3)=NO2)C1 (centres unmarked) [Example 1.19] | 20% | 50% | 20 | 40% |  |  |  |  |  |
| CC1(C(=O)NC2C=CC(C(=O)OCCSCc3ccccc3)C2)CC(c2cc(F)cc(F)c2)=NO1 (centres unmarked) [Example 1.27] |  |  |  |  | 30% | 50% | 30 | 60% |  |
| CN(C)C(=O)SCCOC(=O)C1C=CC(NC(=O)C2(C)CC(c3cc(F)cc(F)c3)=NO2)C1 (centres unmarked) [Example 1.29] | 25% | 58% | 35 | 60% | 25% | 67% | 50 | 75% | Reduction [%] (ZEAMA Sileno [2]; [7]): 33%; Reduction [Difference] (ZEAMA Sileno [2]; [7]): 20; HER effect + SAF (ZEAMA Sileno [2]; [7]): 40%; HER effect (ZEAMA Sileno [2]; [7]): 60% |
| CCOC(=O)C1=CCC(NC(=O)C2(C)CC(c3cccc(F)c3)=NO2)C1 (centres unmarked) [Example 1.59] |  |  |  |  | 10% | 85% | 57 | 67% |  |
| COC(=O)C1=CC(NC(=O)C2(C)CC(c3cc(F)cc(F)c3)=NO2)CC1 (centres unmarked) [Example 1.63] | 40% | 53% | 45 | 85% | 43% | 51% | 45 | 88% | Reduction [%] (ZEAMA Sileno [2]; [11]): 50%; Reduction [Difference] (ZEAMA Sileno [2]; [11]): 30; Reduction [%] (ZEAMA Sileno [2]; [12]): 100%; Reduction [Difference] (ZEAMA Sileno [2]; [12]): 25; HER effect + SAF (ZEAMA Sileno [2]; [11]): 30%; HER effect + SAF (ZEAMA Sileno [2]; [12]): 0%; HER effect (ZEAMA Sileno [2]; [11]): 60%; HER effect (ZEAMA Sileno [2]; [12]): 25% |
| C=CC1(C(=O)NC2COC(C(=O)OC)C2)CC(c2cc(F)cc(F)c2)=NO1 (centres unmarked) [Example 1.69] | 33% | 64% | 59 | 92% | 30% | 68% | 63 | 93% | Reduction [%] (ZEAMA Sileno [2]; [11]): 42%; Reduction [Difference] (ZEAMA Sileno [2]; [11]): 40; Reduction [%] (ZEAMA Sileno [2]; [12]): 28%; Reduction [Difference] (ZEAMA Sileno [2]; [12]): 25; HER effect + SAF (ZEAMA Sileno [2]; [11]): 55%; HER effect + SAF (ZEAMA Sileno [2]; [12]): 65%; HER effect (ZEAMA Sileno [2]; [11]): 95%; HER effect (ZEAMA Sileno [2]; [12]): 90% |
| C=CC1(C(=O)NC2COC(C(=O)OC)C2)CC(c2cc(F)cc(F)c2)=NO1 (centres unmarked) [Example 1.70] |  |  |  |  |  |  |  |  | HER effect + SAF (ZEAMA Sileno [1]; [8]): 35%; Reduction [%] (ZEAMA Sileno [1]; [9]): 60%; Reduction [Difference] (ZEAMA Sileno [1]; [9]): 53; HER effect (ZEAMA Sileno [1]; [10]): 88%; Reduction [%] (ZEAMA Sileno [2]; [11]): 44%; Reduction [Difference] (ZEAMA Sileno [2]; [11]): 35; Reduction [%] (ZEAMA Sileno [2]; [12]): 53%; Reduction [Difference] (ZEAMA Sileno [2]; [12]): 45; HER effect + SAF (ZEAMA Sileno [2]; [11]): 45%; HER effect + SAF (ZEAMA Sileno [2]; [12]): 40%; HER effect (ZEAMA Sileno [2]; [11]): 80%; HER effect (ZEAMA Sileno [2]; [12]): 85%; Reduction [%] (ZEAMA Sileno [2]; [7]): 26%; Reduction [Difference] (ZEAMA Sileno [2]; [7]): 25; Reduction [%] (ZEAMA Sileno [2]; [13]): 21%; Reduction [Difference] (ZEAMA Sileno [2]; [13]): 20; HER effect + SAF (ZEAMA Sileno [2]; [7]): 70%; HER effect + SAF (ZEAMA Sileno [2]; [13]): 75%; HER effect (ZEAMA Sileno [2]; [7]): 95%; HER effect (ZEAMA Sileno [2]; [13]): 95% |
| COC(=O)C1OCCC1NC(=O)C1(C)CC(c2cc(F)cc(F)c2)=NO1 (centres unmarked) [Example 1.92] | 42% | 56% | 53 | 95% | 38% | 61% | 59 | 97% | Reduction [%] (ZEAMA Sileno [2]; [11]): 93%; Reduction [Difference] (ZEAMA Sileno [2]; [11]): 70; Reduction [%] (ZEAMA Sileno [2]; [12]): 86%; Reduction [Difference] (ZEAMA Sileno [2]; [12]): 60; HER effect + SAF (ZEAMA Sileno [2]; [11]): 5%; HER effect + SAF (ZEAMA Sileno [2]; [12]): 10%; HER effect (ZEAMA Sileno [2]; [11]): 75%; HER effect (ZEAMA Sileno [2]; [12]): 70% |
